Test results published in ChEMBL document CHEMBL4118062, “Novel NO-releasing plumbagin derivatives: Design, synthesis and evaluation of antiproliferative activity” (Eur J Med Chem, 2017).

Legend:
MDA-MB-231 [1] = experiment: Cytotoxicity against human MDA-MB-231 cells assessed as growth inhibition at 10 uM after 72 hrs by MTT assay relative to control; assay type: functional; conditions: MDA-MB-231, 72 h, read-out: GI
HepG2 [2] = experiment: Cytotoxicity against human HepG2 cells assessed as growth inhibition at 10 uM after 72 hrs by MTT assay relative to control; assay type: functional; conditions: HepG2, 72 h, read-out: GI
MDA-MB-231 [3] = experiment: Cytotoxicity against human MDA-MB-231 cells assessed as growth inhibition after 72 hrs by MTT assay; assay type: functional, cell-based; conditions: MDA-MB-231, 72 h
HepG2 [4] = experiment: Cytotoxicity against human HepG2 cells assessed as growth inhibition after 72 hrs by MTT assay; assay type: functional, cell-based; conditions: HepG2, 72 h
A549 = experiment: Cytotoxicity against human A549 cells assessed as growth inhibition after 72 hrs by MTT assay; assay type: functional, cell-based; conditions: A549, 72 h
[5] = Selectivity ratio of IC50 for human HepG2 cells to IC50 for human MDA-MB-231 cells; assay type: functional
[6] = Selectivity ratio of IC50 for human A549 cells to IC50 for human MDA-MB-231 cells; assay type: functional
[7] = Drug metabolism in human MDA-MB-231 cells assessed as nitric oxide release at 30 uM after 0.5 to 30 hrs by Griess assay; assay type: ADME, cell-based; conditions: mda-mb-231, 30 µM
[8] = Chemical stability in PBS at pH 6 at 1000 uM after 3 to 24 hrs by HPLC method; assay type: physicochemical; conditions: buffer, pH 6, 1000 µM
[9] = Chemical stability in PBS at pH 8 at 1000 uM after 24 hrs by HPLC method; assay type: physicochemical; conditions: buffer, pH 8, 24 h
[10] = Chemical stability in PBS at pH 7.4 assessed as parent compound remaining at 1000 uM after 24 hrs by HPLC method; assay type: physicochemical; conditions: read-out: Stability
MDA-MB-231 [11] = experiment: Cytotoxicity against human MDA-MB-231 cells assessed as growth inhibition at 20 uM after 72 hrs by MTT assay relative to control; assay type: functional; conditions: MDA-MB-231, 72 h, read-out: GI
HepG2 [12] = experiment: Cytotoxicity against human HepG2 cells assessed as growth inhibition at 20 uM after 72 hrs by MTT assay relative to control; assay type: functional; conditions: HepG2, 72 h, read-out: GI
[13] = Drug degradation in PBS at pH 7.4 at 1000 uM after 24 hrs by HPLC method; assay type: physicochemical; conditions: read-out: Drug degradation
[14] = Drug degradation in PBS at pH 8 at 1000 uM after 24 hrs by HPLC method; assay type: physicochemical; conditions: read-out: Drug degradation
MDA-MB-231 [15] = experiment: Cytotoxicity against human MDA-MB-231 cells assessed as growth inhibition at 40 uM after 72 hrs by MTT assay relative to control; assay type: functional; conditions: MDA-MB-231, 72 h, read-out: GI
HepG2 [16] = experiment: Cytotoxicity against human HepG2 cells assessed as growth inhibition at 40 uM after 72 hrs by MTT assay relative to control; assay type: functional; conditions: HepG2, 72 h, read-out: GI

CC1=C(C(C)CC(=O)OCCCOc2no[n+]([O-])c2S(=O)(=O)c2ccccc2)C(=O)c2c(O)cccc2C1=O (centres undefined)
inhibition of growth at 10 µM (MDA-MB-231 [1]): 95.3% | inhibition of growth at 10 µM (HepG2 [2]): 92.7% | IC50 (MDA-MB-231 [3]): 2.42 µM | IC50 (HepG2 [4]): 4.32 µM | IC50 (A549): 13.9 µM | Ratio IC50 [5]: 1.8 | Ratio IC50 [6]: 5.8 | Drug metabolism [7]: Metabolite_Detected

CC1=C(CC(=O)OCCOc2no[n+]([O-])c2S(=O)(=O)c2ccccc2)C(=O)c2c(O)cccc2C1=O
inhibition of growth at 10 µM (MDA-MB-231 [1]): 97.3% | inhibition of growth at 10 µM (HepG2 [2]): 93.3% | IC50 (MDA-MB-231 [3]): 3.27 µM | IC50 (HepG2 [4]): 6.11 µM | IC50 (A549): 18.6 µM | Ratio IC50 [5]: 1.9

CC1=C(CCC(=O)OCCOc2no[n+]([O-])c2S(=O)(=O)c2ccccc2)C(=O)c2c(O)cccc2C1=O
inhibition of growth at 10 µM (MDA-MB-231 [1]): 97.6% | inhibition of growth at 10 µM (HepG2 [2]): 95.7% | IC50 (MDA-MB-231 [3]): 1.21 µM | IC50 (HepG2 [4]): 2.98 µM | IC50 (A549): 9.31 µM | Ratio IC50 [5]: 2.5 | Ratio IC50 [6]: 7.7 | Stability [8]: Stable | Stability [9]: Stable | remaining at 24 h, 1000 µM [10]: > 98%

CC1=C(CCCC(=O)O)C(=O)c2c(O)cccc2C1=O
inhibition of growth at 20 µM (MDA-MB-231 [11]): 6.1% | inhibition of growth at 20 µM (HepG2 [12]): 23.2%

CC1=CC(=O)c2c(O)cccc2C1=O [PLUMBAGIN]
inhibition of growth at 10 µM (MDA-MB-231 [1]): 32.8% | inhibition of growth at 10 µM (HepG2 [2]): 41% | IC50 (MDA-MB-231 [3]): 14.2 µM | IC50 (HepG2 [4]): 10.7 µM | IC50 (A549): 12.4 µM | Ratio IC50 [5]: 0.7 | Ratio IC50 [6]: 0.9 | Stability [8]: Stable | degraded at 24 h, 1000 µM [13]: > 95% | degraded at 24 h, 1000 µM [14]: > 95%

CC(=O)c1cc2c(o1)C(=O)c1ccccc1C2=O [NAPABUCASIN]
IC50 (MDA-MB-231 [3]): 0.34 µM | IC50 (HepG2 [4]): 0.66 µM | IC50 (A549): 0.74 µM | Ratio IC50 [5]: 1.8 | Ratio IC50 [6]: 2.2

CC1=C(CCCC(=O)OCCOc2no[n+]([O-])c2S(=O)(=O)c2ccccc2)C(=O)c2c(O)cccc2C1=O
inhibition of growth at 10 µM (MDA-MB-231 [1]): 97.9% | inhibition of growth at 10 µM (HepG2 [2]): 95.1% | IC50 (MDA-MB-231 [3]): 1.52 µM | IC50 (HepG2 [4]): 4.16 µM | IC50 (A549): 10.2 µM | Ratio IC50 [5]: 2.7 | Ratio IC50 [6]: 6.7

CC1=C(CC(=O)OCCCCOc2no[n+]([O-])c2S(=O)(=O)c2ccccc2)C(=O)c2c(O)cccc2C1=O
inhibition of growth at 10 µM (MDA-MB-231 [1]): 96.3% | inhibition of growth at 10 µM (HepG2 [2]): 87.2% | IC50 (MDA-MB-231 [3]): 5.2 µM | IC50 (HepG2 [4]): 7.72 µM | IC50 (A549): > 20 µM | Ratio IC50 [5]: 1.5 | Ratio IC50 [6]: >3.8 | Drug metabolism [7]: Metabolite_Detected

CC1=C(CCC(=O)OCCCOc2no[n+]([O-])c2S(=O)(=O)c2ccccc2)C(=O)c2c(O)cccc2C1=O
inhibition of growth at 10 µM (MDA-MB-231 [1]): 96.8% | inhibition of growth at 10 µM (HepG2 [2]): 95.1% | IC50 (MDA-MB-231 [3]): 4.31 µM | IC50 (HepG2 [4]): 6.79 µM | IC50 (A549): > 20 µM | Ratio IC50 [5]: 1.6 | Ratio IC50 [6]: >4.7 | Drug metabolism [7]: Metabolite_Detected

CC1=C(CCC(=O)OCC(C)COc2no[n+]([O-])c2S(=O)(=O)c2ccccc2)C(=O)c2c(O)cccc2C1=O (centres undefined)
inhibition of growth at 10 µM (MDA-MB-231 [1]): 97.4% | inhibition of growth at 10 µM (HepG2 [2]): 73.4% | IC50 (MDA-MB-231 [3]): 2.67 µM | IC50 (HepG2 [4]): 6.69 µM | IC50 (A549): 18.2 µM | Ratio IC50 [5]: 2.5 | Ratio IC50 [6]: 6.8 | Drug metabolism [7]: Metabolite_Detected

CC1=C(CC(=O)OCCCOc2no[n+]([O-])c2S(=O)(=O)c2ccccc2)C(=O)c2c(O)cccc2C1=O
inhibition of growth at 10 µM (MDA-MB-231 [1]): 97.7% | inhibition of growth at 10 µM (HepG2 [2]): 97.2% | IC50 (MDA-MB-231 [3]): 1.76 µM | IC50 (HepG2 [4]): 4.41 µM | IC50 (A549): 7 µM | Ratio IC50 [5]: 2.5 | Ratio IC50 [6]: 4

CC1=C(CC(=O)OCC(C)COc2no[n+]([O-])c2S(=O)(=O)c2ccccc2)C(=O)c2c(O)cccc2C1=O (centres undefined)
inhibition of growth at 10 µM (MDA-MB-231 [1]): 97.3% | inhibition of growth at 10 µM (HepG2 [2]): 96.6% | IC50 (MDA-MB-231 [3]): 1.51 µM | IC50 (HepG2 [4]): 3 µM | IC50 (A549): 5.83 µM | Ratio IC50 [5]: 2 | Ratio IC50 [6]: 3.9 | Drug metabolism [7]: Metabolite_Detected

CC1=C(C(C)CC(=O)OCCCCOc2no[n+]([O-])c2S(=O)(=O)c2ccccc2)C(=O)c2c(O)cccc2C1=O (centres undefined)
inhibition of growth at 10 µM (MDA-MB-231 [1]): 92.7% | inhibition of growth at 10 µM (HepG2 [2]): 89.2% | IC50 (MDA-MB-231 [3]): 1.98 µM | IC50 (HepG2 [4]): 4.24 µM | IC50 (A549): 19.6 µM | Ratio IC50 [5]: 2.1 | Ratio IC50 [6]: 10

CC1=C(CC(=O)O)C(=O)c2c(O)cccc2C1=O
inhibition of growth at 40 µM (MDA-MB-231 [15]): 2.4% | inhibition of growth at 40 µM (HepG2 [16]): 11%

CC1=C(CCC(=O)OCCCCOc2no[n+]([O-])c2S(=O)(=O)c2ccccc2)C(=O)c2c(O)cccc2C1=O
inhibition of growth at 10 µM (MDA-MB-231 [1]): 97.6% | inhibition of growth at 10 µM (HepG2 [2]): 95.4% | IC50 (MDA-MB-231 [3]): 1.24 µM | IC50 (HepG2 [4]): 3.33 µM | IC50 (A549): 8.31 µM | Ratio IC50 [5]: 2.7 | Ratio IC50 [6]: 6.7 | Drug metabolism [7]: Metabolite_Detected

CC1=C(CCC(=O)O)C(=O)c2c(O)cccc2C1=O
inhibition of growth at 40 µM (MDA-MB-231 [15]): 5% | inhibition of growth at 40 µM (HepG2 [16]): 20.3%

CC1=C(C(C)CC(=O)OCC(C)COc2no[n+]([O-])c2S(=O)(=O)c2ccccc2)C(=O)c2c(O)cccc2C1=O (centres undefined)
inhibition of growth at 10 µM (MDA-MB-231 [1]): 94.4% | inhibition of growth at 10 µM (HepG2 [2]): 91.5% | IC50 (MDA-MB-231 [3]): 2.11 µM | IC50 (HepG2 [4]): 3.74 µM | IC50 (A549): 12.8 µM | Ratio IC50 [5]: 1.8 | Ratio IC50 [6]: 6.1 | Drug metabolism [7]: Metabolite_Detected
